Measurements: US12377106B2, “Piperidinylpyrazine-carboxamide compounds for treating and preventing cancer and for degrading BTK” (NURIX THERAPEUTICS, INC., priority 2021, dated 2025)
Entries after “also recorded” stand apart in the source; their conditions may differ.

Key:
Ikaros = target: T1, Ikaros (Homo sapiens, UniProt Q13422+Q96SW2); assay: Ikaros degradation in the patient; assay type: in vivo; settings: DLBCL patient, 300 mg
T1 construct: peripheral blood was obtained from all patients for baseline and post Compound 149 therapy assessment of BTK and Ikaros degradation; endogenous in cells; host or cells: peripheral blood cells of a DLBCL patient
T1 sequence (Q13422 whole entry): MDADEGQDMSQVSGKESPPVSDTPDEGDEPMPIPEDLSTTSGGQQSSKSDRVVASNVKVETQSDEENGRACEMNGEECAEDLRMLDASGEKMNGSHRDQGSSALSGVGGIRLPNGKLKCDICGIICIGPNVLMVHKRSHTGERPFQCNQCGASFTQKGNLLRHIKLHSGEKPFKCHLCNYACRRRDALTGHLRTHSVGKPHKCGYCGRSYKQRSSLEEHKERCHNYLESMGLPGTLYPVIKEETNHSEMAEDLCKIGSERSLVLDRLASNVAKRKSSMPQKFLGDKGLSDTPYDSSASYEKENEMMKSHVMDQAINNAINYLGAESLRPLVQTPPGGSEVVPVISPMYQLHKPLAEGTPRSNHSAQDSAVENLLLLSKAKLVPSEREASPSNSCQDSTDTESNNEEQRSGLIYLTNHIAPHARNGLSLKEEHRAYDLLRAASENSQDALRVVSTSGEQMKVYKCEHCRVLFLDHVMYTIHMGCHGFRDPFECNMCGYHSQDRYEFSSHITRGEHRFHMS
T1 sequence (Q96SW2 whole entry): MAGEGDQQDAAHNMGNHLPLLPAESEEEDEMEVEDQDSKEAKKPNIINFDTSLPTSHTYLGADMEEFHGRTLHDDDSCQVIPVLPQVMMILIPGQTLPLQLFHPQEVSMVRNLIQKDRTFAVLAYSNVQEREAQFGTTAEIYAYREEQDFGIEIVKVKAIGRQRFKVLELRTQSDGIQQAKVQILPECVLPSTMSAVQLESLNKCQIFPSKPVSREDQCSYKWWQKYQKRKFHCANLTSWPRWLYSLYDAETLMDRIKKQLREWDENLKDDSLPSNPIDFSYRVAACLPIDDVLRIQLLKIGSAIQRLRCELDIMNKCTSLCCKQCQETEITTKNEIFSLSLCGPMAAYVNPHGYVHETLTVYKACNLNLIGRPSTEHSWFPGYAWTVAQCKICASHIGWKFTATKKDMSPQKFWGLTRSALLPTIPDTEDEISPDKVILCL
T1 sequence (Q16531 whole entry partner): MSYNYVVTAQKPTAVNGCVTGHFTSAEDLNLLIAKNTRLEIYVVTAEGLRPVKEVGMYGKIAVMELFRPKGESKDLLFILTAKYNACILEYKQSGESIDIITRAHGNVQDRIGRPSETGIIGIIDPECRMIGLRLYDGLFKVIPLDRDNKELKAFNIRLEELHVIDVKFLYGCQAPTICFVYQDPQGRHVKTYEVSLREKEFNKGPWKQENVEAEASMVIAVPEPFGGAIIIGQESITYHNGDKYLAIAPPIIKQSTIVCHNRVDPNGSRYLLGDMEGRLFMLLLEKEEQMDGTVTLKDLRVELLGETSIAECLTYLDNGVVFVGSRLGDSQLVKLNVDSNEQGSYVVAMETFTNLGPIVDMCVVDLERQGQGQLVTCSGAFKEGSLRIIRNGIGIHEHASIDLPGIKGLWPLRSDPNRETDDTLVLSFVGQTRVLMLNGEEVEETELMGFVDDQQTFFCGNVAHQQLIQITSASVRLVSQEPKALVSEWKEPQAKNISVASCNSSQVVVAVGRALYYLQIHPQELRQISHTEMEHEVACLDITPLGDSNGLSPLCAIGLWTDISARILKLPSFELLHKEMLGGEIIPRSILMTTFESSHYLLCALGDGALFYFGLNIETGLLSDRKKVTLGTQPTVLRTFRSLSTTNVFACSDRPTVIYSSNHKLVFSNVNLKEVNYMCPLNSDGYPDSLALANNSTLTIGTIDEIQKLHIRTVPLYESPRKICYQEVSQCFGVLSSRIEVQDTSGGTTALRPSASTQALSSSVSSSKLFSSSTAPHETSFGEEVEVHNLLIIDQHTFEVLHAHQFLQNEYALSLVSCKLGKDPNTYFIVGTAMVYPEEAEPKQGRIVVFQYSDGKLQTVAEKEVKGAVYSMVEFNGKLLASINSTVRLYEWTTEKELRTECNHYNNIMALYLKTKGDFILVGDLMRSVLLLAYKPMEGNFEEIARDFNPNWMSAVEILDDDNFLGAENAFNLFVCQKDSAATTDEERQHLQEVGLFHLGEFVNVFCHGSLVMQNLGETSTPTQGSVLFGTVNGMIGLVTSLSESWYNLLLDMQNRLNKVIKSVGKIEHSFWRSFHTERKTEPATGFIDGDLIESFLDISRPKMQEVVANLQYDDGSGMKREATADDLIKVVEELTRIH
Description: Following informed consent, peripheral blood was obtained from all patients for baseline and post Compound 149 therapy assessment of BTK and Ikaros degradation. Patient blood (5 mL) was drawn and immediately fixed in a 5 mL CytoChex™ BCT tube and stored at ambient temperature until assessment via flow cytometry. Blood samples were analyzed within 3 days post sample collection at Precision for Medicine. Additional blood was also drawn into 8 mL BD Vacutainer® CPT™ Cell Preparation Tube with Sodium Citrate. Peripheral blood mononuclear cells (PBMCs) were processed, and viability frozen according to manufacturer's protocol. The patient's response was checked at 8 weeks and 16 weeks. […] Gradual BTK degradation was observed until day 8 day of receiving the 300 mg dose of Compound 149, wherein the maximum BTK degradation was achieved on the 8th day. Consistent with its design, Compound 149 also degraded Ikaros and Aiolos which is responsible for the compound's immunomodulatory activity. […] In the 16-week assessment image, maximum standard uptake value (Max SUV) reduced from 17.6 at screening to 2.5 at the 16-week assessment time with the Deauville five-point scale (5PS; Barrington et al., 2010, Eur J Nucl Med Mol Imaging 37 (10): 1824-33) reducing from 5 to 2.

BTK = assay: Flow cytometry assay for BTK degradation in patient circulating B cells (CD19+CD3-), Phase 1a/1b trial; assay type: in vivo, human
Description: Compound 149 was administered to human patients in a Phase 1a/lb trial investigating safety and tolerability in relapsed and refractory B cell malignancies. Compound 149 was administered as a once daily oral dose first in an accelerated Phase 1a dose escalation starting at 100 mg on Day 1. The first dose levels are explored in a single patient cohort until a grade 2 adverse event has been observed. Thereafter, a traditional 3+3 escalation design is used. This 100 mg starting dose was predicted to provide similar exposure as that observed in non-human primate studies. Once a dose is selected based on all safety, efficacy, pharmacokinetic, and pharmacodynamic data available, the trial will expand in up to five expansion cohorts.
[…] of Bruton's tyrosine kinase were measured by flow cytometry in circulating B cells, including disease cells and provided in FIG. 2. This mean fluorescence intensity directly correlates with the levels of BTK protein observed in a Western blot. […] The patient's BTK levels start at different levels yet, the treatment results in the same level of degradation by Day 15, which is the first measurement after steady state concentration is achieved.
The 100 mg patient achieved greater than 80% BTK degradation at steady state. All patients at the 200 mg dose level achieved greater than 90% degradation at steady state.
The data is summarized in Table 3 below which provides the average percent BTK degradation during the last 2 weeks of the first cycle (namely Days 15, 22, and 29). In Cohort 2 (200 mg), well above 90% of BTK degradation was achieved during the steady state.
Following informed consent, peripheral blood was obtained from all patients for baseline and post Compound 149 therapy assessment of BTK and Ikaros degradation. Patient blood (5 mL) was drawn and immediately fixed in a 5 mL CytoChex™ BCT tube and stored at ambient temperature until assessment via flow cytometry. Blood samples were analyzed within 3 days post sample collection at Precision for Medicine. Additional blood was also drawn into 8 mL BD Vacutainer® CPT™ Cell Preparation Tube with Sodium Citrate. Peripheral blood mononuclear cells (PBMCs) were processed, and viability frozen according to manufacturer's protocol.
For flow staining, 1 mL blood was treated with 1×BD PharmLyse to facilitate red blood cell lysing. Remaining leukocytes were washed with staining buffer (SB) containing Dulbecco's Phosphate Buffered Saline (DPBS) without Calcium or Magnesium, 1% bovine serum albumin (BSA), 10 mM HEPES, 1 mM EDTA, and 0.01% sodium azide. Cell pellet was stained with fluorophore-conjugated cell surface markers antibodies against CD45, CD3, CD4, CD8, CD14, CD16, CD19 and CD56 prepared in BD Brilliant Stain buffer for 25 minutes at room temperature.
Following cell surface staining, cells were washed twice with SB and then fixed and permeabilized for one hour at room temperature with eBioscience FoxP3/Transcription Factor Staining Buffer set according to the manufacturer's instructions. Washed cells were then stained with unconjugated BTK antibody made in 1× Permeabilization buffer) for 30 minutes. This was followed by another 30-minute incubation with anti-rabbit Alexa488 secondary antibody also prepared in 1× Permeabilization buffer for BTK detection. After incubation, the cells were washed twice with 1× Permeabilization Buffer and then resuspended in SB. Control samples containing fluorescence minus two markers (FM2) were used for background controls and were stained for all surface markers in the panel excluding BTK.
The samples were transferred to BD TruCount tubes before acquisition on a BD LSR Fortessa using predetermined BD FACS Diva software (v8.0) application settings. Data analysis was performed using FlowJo software (v10).
Single lymphocytes were gated for B cells (CD19+CD3−), and the geometric mean fluorescence intensity (MFI) of BTK was calculated. The MFI of B cells in FM2 control was used to quantify background staining. […]

[1] = average of patients 1, 2, 3, 4, 6 (100 mg and 200 mg)
[2] = average of patients with data (100 mg and 200 mg)
[3] = patient 1 (CLL), 100 mg once daily oral
[4] = patient 2 (CLL), 200 mg once daily oral
[5] = patient 3 (MCL), 200 mg once daily oral
[6] = patient 4 (WM), 200 mg once daily oral
[7] = patient 6 (SLL), 200 mg once daily oral

With `NC(=O)c1ncc(N2CCCCC2)nc1Nc1ccc(C2CCN(C[C@@H]3CCN(c4ccc5c(c4)C(=O)N(C4CCC(=O)NC4=O)C5=O)C3)CC2)cc1` (stereo partly drawn) [Compound 149] the Ikaros degradation (Ikaros) was “degraded”, the “day on which maximum BTK degradation was achieved” value (BTK; DLBCL patient, 300 mg, BTK MFI in CD19+ B cells, FIG. 8) was 8 days and the “duration of BTK degradation” value (BTK; DLBCL patient, 300 mg, FIG. 8) was “sustained through day 29”. The “duration of BTK degradation” value (BTK; after steady state Cycle 1 Day 15, prior to starting Cycle 2) was “sustained through Cycle 1 Day 29”, the “level of BTK protein in circulating B cells (BTK MFI)” value (BTK; all patients treated, once daily oral regimen) was “dramatically decreases the level of BTK protein in all patients treated; also recorded: time-dependent decrease of BTK levels” and the “% BTK Degraded, Day 2, Average” value (BTK; [1]) was 56.5%. For the same molecule, the “% BTK Degraded, Day 8, Average” value (BTK; [1]) was 80.4%, the “% BTK Degraded, Day 22, Average” value (BTK; [2]) was 92.1% and the “% BTK Degraded, Day 29, Average” value (BTK; [2]) was 90.1%. For the same molecule, the “% BTK Degraded, Day 15, Average” value (BTK; average of patients with data (100 mg and 200 mg), steady state Cycle 1 Day 15) was 90.1%, the “BTK Degradation, Day 2” value (BTK; [3]) was 62.8% and the “BTK Degradation, Day 8” value (BTK; [3]) was 76.9%. The “BTK Degradation, Day 15” value (BTK; [3]) was 78.0%, the “BTK Degradation, Day 22” value (BTK; [3]) was 85.5% and the “BTK Degradation, Day 29” value (BTK; [3]) was 82.0%. The “BTK Degradation, Day 56” value (BTK; [3]) was 81.4%, the “BTK Degradation, Avg. Steady State” value (BTK; patient 1 (CLL), 100 mg once daily oral, average of Days 15, 22 and 29) was 81.8% and the “BTK Degradation, Day 2” value (BTK; [4]) was 75.1%. For the same molecule, the “BTK Degradation, Day 8” value (BTK; [4]) was 90.5%, the “BTK Degradation, Day 15” value (BTK; [4]) was 96.1% and the “BTK Degradation, Day 22” value (BTK; [4]) was 95.4%. For the same molecule, the “BTK Degradation, Day 29” value (BTK; [4]) was 96.1%, the “BTK Degradation, Day 56” value (BTK; [4]) was 96.0% and the “BTK Degradation, Avg. Steady State” value (BTK; patient 2 (CLL), 200 mg once daily oral, average of Days 15, 22 and 29) was 95.9%. The “BTK Degradation, Day 2” value (BTK; [5]) was 74.0%, the “BTK Degradation, Day 8” value (BTK; [5]) was 92.7% and the “BTK Degradation, Day 15” value (BTK; [5]) was 94.6%. For the same molecule, the “BTK Degradation, Day 22” value (BTK; [5]) was 95.4%, the “BTK Degradation, Day 29” value (BTK; [5]) was 92.3% and the “BTK Degradation, Day 56” value (BTK; [5]) was 94.7%. For the same molecule, the “BTK Degradation, Avg. Steady State” value (BTK; patient 3 (MCL), 200 mg once daily oral, average of Days 15, 22 and 29) was 94.1%, the “BTK Degradation, Day 2” value (BTK; [6]) was 63.6% and the “BTK Degradation, Day 8” value (BTK; [6]) was 56.8%. For the same molecule, the “BTK Degradation, Day 15” value (BTK; [6]) was 91.5%, the “BTK Degradation, Avg. Steady State” value (BTK; patient 4 (WM), 200 mg once daily oral, only Day 15 available) was 91.5% and the “BTK Degradation, Day 2” value (BTK; [7]) was 6.9%. The “BTK Degradation, Day 8” value (BTK; [7]) was 85.1%, the “BTK degradation at 24 hours after the initial dose” value (BTK; patients 1, 2, 3 and 4, 100 mg or 200 mg) was 62.8-75.1% and the “BTK degradation at steady state” value (BTK; the 100 mg patient) was “greater than 80%”.
